Test results published in ChEMBL document CHEMBL1201862, “PubChem BioAssay data set” (2004).
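Five concentrations, 48 hours, 96-well plates. Abbreviation: GI50, concentration required for 50% inhibition of growth.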 Activity calls are given as the source filed them. No stated cut-off is given here; in the data, active = GI50 up to about 1.1 µM and inactive = higher.

Assays:
Assay in all cases: inhibition of tumour cell growth, NCI panel, 48 h
SR = system: SR
UO-31 = system: UO-31
K562 = system: K562
HL-60 = system: HL-60
HCT-116 = system: HCT-116
OVCAR-8 = system: OVCAR-8
MCF7 = system: MCF7
NCI/ADR-RES = system: NCI/ADR-RES
SK-MEL-2 = system: SK-MEL-2
MDA-MB-435 = system: MDA-MB-435
786-0 = system: 786-0
A549 = system: A549
SNB-75 = system: SNB-75
COLO 205 = system: COLO 205
NCI-H460 = system: NCI-H460
CCRF-CEM = system: CCRF-CEM
IGROV-1 = system: IGROV-1
SF-268 = system: SF-268
SK-MEL-5 = system: SK-MEL-5
OVCAR-5 = system: OVCAR-5
NCI-H23 = system: NCI-H23
SW-620 = system: SW-620
U-251 = system: U-251
CAKI-1 = system: CAKI-1
UACC-62 = system: UACC-62
Malme-3M = system: Malme-3M
MOLT-4 = system: MOLT-4
SK-MEL-28 = system: SK-MEL-28
RPMI-8226 = system: RPMI-8226
OVCAR-4 = system: OVCAR-4
SK-OV-3 = system: SK-OV-3
M14 = system: M14
T47D = system: T47D
RXF 393 = system: RXF 393
ACHN = system: ACHN
HOP-62 = system: HOP-62
NCI-H226 = system: NCI-H226
PC-3 = system: PC-3
SF-539 = system: SF-539
EKVX = system: EKVX
HCT-15 = system: HCT-15
OVCAR-3 = system: OVCAR-3
HOP-92 = system: HOP-92
TK-10 = system: TK-10
SF-295 = system: SF-295
MDA-N = system: MDA-N
HT-29 = system: HT-29
DU-145 = system: DU-145
LOX IMVI = system: LOX IMVI
MDA-MB-231 = system: MDA-MB-231
HCC 2998 = system: HCC 2998
SNB-19 = system: SNB-19
SN12C = system: SN12C
UACC-257 = system: UACC-257
KM12 = system: KM12
A498 = system: A498
BT-549 = system: BT-549
NCI-H522 = system: NCI-H522

CC(=O)c1ccc(NC(=O)CSc2nc(C)nc3c2sc(=S)n3-c2ccccc2)cc1
GI50 (SR): 2.2 µM (inactive)
GI50 (UO-31): 9.42 µM (inactive)
GI50 (K562): > 10 µM (inactive)
GI50 (HL-60): 2.99 µM (inactive)
GI50 (HCT-116): 3 µM (inactive)
GI50 (OVCAR-8): > 10 µM (inactive)
GI50 (MCF7): > 10 µM (inactive)

COc1cc2ccc3ccncc3c2cc1OC
GI50 (NCI/ADR-RES): > 10 µM (inactive)
GI50 (SK-MEL-2): > 10 µM (inactive)
GI50 (MDA-MB-435): > 10 µM (inactive)
GI50 (786-0): > 10 µM (inactive)
GI50 (A549): > 10 µM (inactive)
GI50 (SNB-75): > 10 µM (inactive)
GI50 (COLO 205): > 10 µM (inactive)
GI50 (NCI-H460): > 10 µM (inactive)
GI50 (CCRF-CEM): > 10 µM (inactive)
GI50 (IGROV-1): > 10 µM (inactive)
GI50 (SR): > 10 µM (inactive)
GI50 (SF-268): > 10 µM (inactive)
GI50 (SK-MEL-5): > 10 µM (inactive)
GI50 (OVCAR-5): > 10 µM (inactive)
GI50 (NCI-H23): > 10 µM (inactive)
GI50 (SW-620): > 10 µM (inactive)
GI50 (U-251): > 10 µM (inactive)
GI50 (CAKI-1): > 10 µM (inactive)
GI50 (K562): > 10 µM (inactive)
GI50 (UACC-62): > 10 µM (inactive)
GI50 (Malme-3M): > 10 µM (inactive)
GI50 (MOLT-4): > 10 µM (inactive)
GI50 (SK-MEL-28): > 10 µM (inactive)
GI50 (RPMI-8226): > 10 µM (inactive)
GI50 (OVCAR-4): > 10 µM (inactive)
GI50 (SK-OV-3): > 10 µM (inactive)
GI50 (M14): > 10 µM (inactive)
GI50 (T47D): > 10 µM (inactive)
GI50 (MCF7): > 10 µM (inactive)
GI50 (RXF 393): > 10 µM (inactive)
GI50 (ACHN): > 10 µM (inactive)
GI50 (HOP-62): > 10 µM (inactive)

CC1=CC(=O)/C(=C/N2C(=O)CNC2=S)C(=O)O1
GI50 (NCI/ADR-RES): > 100 µM (inactive)
GI50 (NCI-H226): > 100 µM (inactive)
GI50 (SK-MEL-2): > 100 µM (inactive)
GI50 (PC-3): > 100 µM (inactive)
GI50 (MDA-MB-435): > 100 µM (inactive)
GI50 (SF-539): > 100 µM (inactive)
GI50 (786-0): > 100 µM (inactive)
GI50 (EKVX): > 100 µM (inactive)
GI50 (HCT-15): > 100 µM
GI50 (A549): > 100 µM (inactive)
GI50 (SNB-75): > 100 µM (inactive)
GI50 (OVCAR-3): > 100 µM (inactive)
GI50 (COLO 205): > 100 µM (inactive)
GI50 (NCI-H460): > 100 µM (inactive)
GI50 (HOP-92): > 100 µM (inactive)
GI50 (TK-10): > 100 µM (inactive)
GI50 (SF-295): > 100 µM (inactive)
GI50 (IGROV-1): > 100 µM (inactive)
GI50 (MDA-N): > 100 µM (inactive)
GI50 (HT-29): > 100 µM (inactive)
GI50 (SK-MEL-5): > 100 µM (inactive)
GI50 (DU-145): > 100 µM (inactive)
GI50 (OVCAR-5): > 100 µM (inactive)
GI50 (LOX IMVI): > 100 µM (inactive)
GI50 (NCI-H23): > 100 µM (inactive)
GI50 (SW-620): > 100 µM (inactive)
GI50 (U-251): > 100 µM (inactive)
GI50 (MDA-MB-231): > 100 µM (inactive)
GI50 (HCC 2998): > 100 µM (inactive)
GI50 (UO-31): > 100 µM (inactive)
GI50 (CAKI-1): > 100 µM (inactive)
GI50 (HL-60): > 100 µM (inactive)
GI50 (MOLT-4): > 100 µM (inactive)
GI50 (SK-MEL-28): > 100 µM (inactive)
GI50 (HCT-116): > 100 µM (inactive)
GI50 (OVCAR-4): > 100 µM (inactive)
GI50 (SK-OV-3): > 100 µM (inactive)
GI50 (OVCAR-8): > 100 µM (inactive)
GI50 (SNB-19): > 100 µM (inactive)
GI50 (M14): > 100 µM (inactive)
GI50 (SN12C): > 100 µM (inactive)
GI50 (T47D): > 100 µM (inactive)
GI50 (MCF7): > 100 µM (inactive)
GI50 (ACHN): > 100 µM (inactive)
GI50 (UACC-257): > 100 µM (inactive)
GI50 (KM12): > 100 µM (inactive)
GI50 (HOP-62): > 100 µM (inactive)

C=CCN1C(=O)/C(=C/c2ccccc2)N=C1SC1OC(COC(=O)c2ccccc2)C(OC(=O)c2ccccc2)C1OC(=O)c1ccccc1 (stereo not drawn)
GI50 (NCI/ADR-RES): > 100 µM (inactive)
GI50 (NCI-H226): > 100 µM (inactive)
GI50 (SK-MEL-2): > 100 µM (inactive)
GI50 (PC-3): > 100 µM (inactive)
GI50 (MDA-MB-435): > 100 µM (inactive)
GI50 (SF-539): > 100 µM (inactive)
GI50 (EKVX): > 100 µM (inactive)
GI50 (HCT-15): > 100 µM
GI50 (SNB-75): > 100 µM (inactive)
GI50 (OVCAR-3): > 100 µM (inactive)
GI50 (COLO 205): > 100 µM (inactive)
GI50 (NCI-H460): > 100 µM (inactive)
GI50 (CCRF-CEM): 34.9 µM (inactive)
GI50 (HOP-92): 60.5 µM (inactive)
GI50 (TK-10): > 100 µM (inactive)
GI50 (SF-295): > 100 µM (inactive)
GI50 (IGROV-1): > 100 µM (inactive)
GI50 (SR): 64.3 µM (inactive)
GI50 (SK-MEL-5): > 100 µM (inactive)
GI50 (DU-145): > 100 µM (inactive)
GI50 (OVCAR-5): 44.3 µM (inactive)
GI50 (LOX IMVI): 78.3 µM (inactive)
GI50 (NCI-H23): > 100 µM (inactive)
GI50 (SW-620): 79.8 µM (inactive)
GI50 (U-251): > 100 µM (inactive)
GI50 (MDA-MB-231): 91.2 µM (inactive)
GI50 (HCC 2998): > 100 µM (inactive)
GI50 (A498): 49.8 µM (inactive)
GI50 (CAKI-1): 97.9 µM (inactive)
GI50 (K562): 46.2 µM (inactive)
GI50 (HL-60): 32.8 µM (inactive)
GI50 (UACC-62): 31.3 µM (inactive)
GI50 (Malme-3M): > 100 µM (inactive)
GI50 (MOLT-4): > 100 µM (inactive)
GI50 (SK-MEL-28): > 100 µM (inactive)
GI50 (RPMI-8226): 16.4 µM (inactive)
GI50 (OVCAR-4): > 100 µM (inactive)
GI50 (SK-OV-3): > 100 µM (inactive)
GI50 (OVCAR-8): > 100 µM (inactive)
GI50 (BT-549): > 100 µM (inactive)
GI50 (MCF7): 15.1 µM (inactive)
GI50 (RXF 393): > 100 µM (inactive)
GI50 (NCI-H522): 10.4 µM (inactive)
GI50 (ACHN): 30.3 µM (inactive)
GI50 (UACC-257): 25.7 µM (inactive)
GI50 (KM12): > 100 µM (inactive)
GI50 (HOP-62): > 100 µM (inactive)
